What all share (type): in vivo
For test [1], the system named is corn. Description: Yield upon corn seed treatment (FIG. 5). The following applies: statistical data for FIG. 5, yield. An excerpt:
FIG. 5 is a graph showing the yield upon corn seed treatment using a synergistic agricultural formula in accordance with the present invention including 14 wt. % DFU and 10 wt. % of Stollers STIMULATE YE Plant Growth Regulator Mix applied at a Pint/Acre compared to each individual component applied at a Pint/Acre;
(§1) The statistical data for this analysis is provided as follows: […]

A further test has as its system winter wheat. Description: Yield upon winter wheat seed treatment (FIG. 6). To be noted: statistical data for FIG. 6, yield.
Description: FIG. 6 is a graph showing the yield upon winter wheat seed treatment using a synergistic agricultural formula in accordance with the present invention including 14 wt. % DFU and 10 wt. % of Stollers STIMULATE YE Plant Growth Regulator Mix applied at a Pint/Acre compared to each individual component applied at a Pint/Acre;
as §1

The test system of the next test is soybean. Description: Yield upon soybean seed treatment (FIG. 7). To be noted: statistical data for FIG. 7, yield.
Description: FIG. 7 is a graph showing the yield upon soybean seed treatment using a synergistic agricultural formula in accordance with the present invention including 14 wt. % DFU and 10 wt. % of Stollers STIMULATE YE Plant Growth Regulator Mix applied at a Pint/Acre compared to each individual component applied at a Pint/Acre;
as §1

Test [2] concerns corn. Description: Yield in furrow corn treatment (FIG. 8). The following applies: statistical data for FIG. 8, yield.
Description: FIG. 8 is a graph showing the yield in furrow corn treatment using a synergistic agricultural formula in accordance with the present invention including 7.5 wt. % DFU, 0.01 wt. % cytokinin, and 0.05 wt. % IAA applied at a Pint/Acre compared to each individual component applied at a Pint/Acre; and
as §1

In test [3] the test system is corn. Briefly: Yield, V3-V5 foliar corn treatment (FIG. 9). To be noted: statistical data for FIG. 9, yield.
Description: FIG. 9 is a graph showing V3-V5 foliar corn treatment using a synergistic agricultural formula in accordance with the present invention including 7.5 wt. % DFU and 0.01 wt. % cytokinin applied at a Pint/Acre compared to each individual component applied at a Pint/Acre.
as §1

In the case of `O=CNC(=O)NC=O` [15% DFU, N,N′-diformylurea], the “p Vs Combination” value in the test with corn [1] stood at 0.0442; with winter wheat, 0.0089; in the test with soybean, 0.052; in the test on corn [2] it was 0.0622; with corn [3], 0.0677. Also, the “p Vs Control” value is listed as 0.8782 with corn [1]; 0.0026 in the test on winter wheat; 0.4492 in the test on soybean; 0.5485 in the test with corn [2]; 0.6829 in the test on corn [3].

(Values after patent US20190008155A1, “Synergistic Agricultural Formula Comprising Diacyl or Diaryl Urea and At Least One Plant Growth Regulator” (Stoller Enterprises, Inc., priority 2017, published 2019).)
